In patent US20060063759A1, “Tricyclic steroid hormone nuclear receptor modulators” (priority 2002, published 2006):
Read-outs that look alike come from different tables or passages of the source.

Experiments:
[1] = target: T1, human MR (Homo sapiens, UniProt P08235); experiment: Mineralocorticoid Receptor Binding Assay ([3H]-aldosterone)
T1 construct: The full length human MR gene is cloned from a human kidney or human brain cDNA library; His tag from the pAcHLT vector (own knowledge); made in house; host or cells: Sf9 insect cells (baculovirus, pAcHLT transfer vector)
T1 sequence (P08235 1-984): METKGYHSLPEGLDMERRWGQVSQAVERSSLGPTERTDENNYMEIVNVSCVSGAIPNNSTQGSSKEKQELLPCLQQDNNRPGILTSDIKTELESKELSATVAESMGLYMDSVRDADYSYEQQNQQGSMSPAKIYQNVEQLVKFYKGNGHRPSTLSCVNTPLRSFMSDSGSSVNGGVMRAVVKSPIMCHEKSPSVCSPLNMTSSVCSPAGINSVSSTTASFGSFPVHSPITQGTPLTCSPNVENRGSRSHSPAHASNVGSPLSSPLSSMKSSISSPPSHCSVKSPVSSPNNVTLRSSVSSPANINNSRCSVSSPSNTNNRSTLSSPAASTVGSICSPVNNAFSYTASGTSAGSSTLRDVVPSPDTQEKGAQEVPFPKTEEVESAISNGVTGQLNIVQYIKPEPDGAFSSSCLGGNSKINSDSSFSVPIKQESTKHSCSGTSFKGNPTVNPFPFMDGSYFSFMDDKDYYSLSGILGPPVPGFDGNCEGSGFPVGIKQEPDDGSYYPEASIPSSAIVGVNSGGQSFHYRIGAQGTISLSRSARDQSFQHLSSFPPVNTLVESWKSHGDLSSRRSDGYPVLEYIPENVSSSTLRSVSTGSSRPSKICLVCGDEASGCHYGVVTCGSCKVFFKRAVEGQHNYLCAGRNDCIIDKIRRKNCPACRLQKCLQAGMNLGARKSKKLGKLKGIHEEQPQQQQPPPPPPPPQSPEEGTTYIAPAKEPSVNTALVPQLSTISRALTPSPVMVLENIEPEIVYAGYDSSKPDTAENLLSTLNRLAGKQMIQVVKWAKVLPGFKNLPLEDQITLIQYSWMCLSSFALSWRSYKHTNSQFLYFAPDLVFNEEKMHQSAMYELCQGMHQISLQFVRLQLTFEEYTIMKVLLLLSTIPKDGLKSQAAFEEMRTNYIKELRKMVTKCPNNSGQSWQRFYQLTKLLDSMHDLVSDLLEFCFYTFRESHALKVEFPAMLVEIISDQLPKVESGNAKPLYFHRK
Outline: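 Lysate supernatant of Sf9 cells expressing full-length human MR (20-25 μg protein) was incubated with 0.5 nM [3H]-aldosterone and test compound in molybdate/Tris/phosphate/glycerol buffer, pH 7.5, ~16 h at 4 °C. Bound ligand was filtered and counted by scintillation; IC50 is the concentration halving [3H]-aldosterone binding.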

[2] = target: T2, glucocorticoid receptor (Homo sapiens, UniProt P04150); experiment: Glucocorticoid Receptor Binding Assay ([3H]-dexamethasone, A549 cell extract); details: [3H]-dexamethasone binding, read-out: GR Ki
T2 construct: containing 50-200 ug of A549 cell extract and 1.86 nM [^3H]-dexamethasone; host or cells: A549 human lung epithelial cells (sonicated cell extract)
T2 sequence (P04150 1-777): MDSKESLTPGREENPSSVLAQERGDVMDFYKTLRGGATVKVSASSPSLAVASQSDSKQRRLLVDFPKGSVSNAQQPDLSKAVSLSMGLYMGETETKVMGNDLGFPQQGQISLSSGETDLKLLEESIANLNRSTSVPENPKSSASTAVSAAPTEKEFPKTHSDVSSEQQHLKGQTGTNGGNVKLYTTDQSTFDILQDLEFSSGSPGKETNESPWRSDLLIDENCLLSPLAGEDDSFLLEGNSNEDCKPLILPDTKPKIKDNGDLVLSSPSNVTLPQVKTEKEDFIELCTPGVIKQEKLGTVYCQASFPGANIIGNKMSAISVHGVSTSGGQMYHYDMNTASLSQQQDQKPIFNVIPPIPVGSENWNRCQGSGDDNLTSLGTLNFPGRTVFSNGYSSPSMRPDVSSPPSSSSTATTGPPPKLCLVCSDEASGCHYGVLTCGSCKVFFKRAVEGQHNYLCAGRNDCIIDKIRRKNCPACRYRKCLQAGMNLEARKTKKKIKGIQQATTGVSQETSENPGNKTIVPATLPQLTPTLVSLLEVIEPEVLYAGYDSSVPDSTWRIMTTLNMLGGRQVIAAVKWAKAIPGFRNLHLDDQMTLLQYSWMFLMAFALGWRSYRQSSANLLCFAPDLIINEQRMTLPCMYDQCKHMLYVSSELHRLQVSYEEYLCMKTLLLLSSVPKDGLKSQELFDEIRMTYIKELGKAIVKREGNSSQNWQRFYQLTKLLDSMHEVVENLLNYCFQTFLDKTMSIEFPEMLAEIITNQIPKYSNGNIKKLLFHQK
Outline: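 A549 cell extract (50–200 ug) incubated with 1.86 nM [3H]-dexamethasone and test compound for 16 h at 4 °C in Tris-HCl pH 7.2 buffer with glycerol and molybdate. Unbound radioligand removed by dextran-coated charcoal, then supernatant bound counts measured by scintillation.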

[3] = [3H]-aldosterone binding, human MR expressed in Sf9 cells, read-out: MR Ki

Row | Ki [1, 3] | Ki [2] | SMILES | Ki [1]
1 | < 500 nM | < 500 nM | C/C(=C1\c2ccccc2COc2cc(C)ccc21)c1cccc(NS(C)(=O)=O)c1 [Example 784] | 
2 | < 500 nM | < 500 nM | C/C(=C1\c2ccccc2COc2cc(C)c(Br)cc21)c1cccc(NS(C)(=O)=O)c1 [Example 785] | 
3 | < 500 nM | < 500 nM | C/C(=C1/c2ccccc2COc2cc(C)ccc21)c1cccc(NS(C)(=O)=O)c1 [Example 786] | 
4 | < 500 nM | < 500 nM | C/C(=C1\c2ccccc2CCc2c(F)cccc21)c1cccc(NS(C)(=O)=O)c1 [Example 787] | 
5 | < 500 nM | < 500 nM | C/C(=C1/c2ccccc2COc2c(F)cccc21)c1cccc(NS(C)(=O)=O)c1 [Example 788] | 
6 | < 500 nM | < 500 nM | C/C(=C1\c2ccccc2COc2ccc(F)cc21)c1cccc(NS(C)(=O)=O)c1 [Example 789] | 
7 | < 500 nM | < 500 nM | C/C(=C1\c2cc(F)ccc2COc2ccccc21)c1cccc(NS(C)(=O)=O)c1 [Example 790] | 
8 | < 500 nM | < 500 nM | C/C(=C1\c2ccccc2CCc2cc(Cl)ccc21)c1cccc(NS(C)(=O)=O)c1 [Example 793] | 
9 | < 500 nM | < 500 nM | C/C(=C1/c2ccccc2CCc2cc(Cl)ccc21)c1cccc(NS(C)(=O)=O)c1 [Example 794] | 
10 | < 500 nM | < 500 nM | C/C(=C1\c2ccccc2COc2ccccc21)c1cccc(NS(C)(=O)=O)c1 [Example 795] | 
11 | < 500 nM | < 500 nM | C/C(=C1/c2ccccc2COc2ccccc21)c1cccc(NS(C)(=O)=O)c1 [Example 796] | 
12 | < 500 nM | < 500 nM | C/C(=C1/c2ccc(Cl)cc2COc2ccccc21)c1cccc(NS(C)(=O)=O)c1 [Example 797] | 
13 | < 500 nM | < 500 nM | C/C(=C1\c2ccc(Cl)cc2COc2ccccc21)c1cccc(NS(C)(=O)=O)c1 [Example 798] | 
14 | < 500 nM | < 500 nM | CC/C(=C1\c2ccccc2COc2ccccc21)c1cccc(NS(C)(=O)=O)c1 [Example 799] | 
15 | < 500 nM | < 500 nM | CC/C(=C1/c2ccccc2COc2ccccc21)c1cccc(NS(C)(=O)=O)c1 [Example 800] | 
16 | < 500 nM | < 500 nM | CCC/C(=C1\c2ccccc2COc2ccccc21)c1cccc(NS(C)(=O)=O)c1 [Example 801] | 
17 | < 500 nM | < 500 nM | CCC/C(=C1/c2ccccc2COc2ccccc21)c1cccc(NS(C)(=O)=O)c1 [Example 802] | 
18 | < 500 nM | < 500 nM | C/C(=C1/c2ccc(Cl)cc2COc2cc(F)ccc21)c1cccc(NS(C)(=O)=O)c1 [Example 803] | 
19 | < 500 nM | < 500 nM | C/C(=C1\c2ccc(Cl)cc2COc2cc(F)ccc21)c1cccc(NS(C)(=O)=O)c1 [Example 804] | 
20 | < 500 nM | < 500 nM | CS(=O)(=O)Nc1cccc(/C(F)=C2\c3ccccc3COc3ccccc32)c1 [Example 806] | 
21 | < 500 nM | < 500 nM | C/C(=C1/c2ccccc2COc2cc(F)ccc21)c1cccc(NS(C)(=O)=O)c1 [Example 807] | 
22 | < 500 nM | < 500 nM | C/C(=C1\c2ccccc2COc2cc(F)ccc21)c1cccc(NS(C)(=O)=O)c1 [Example 808] | 

Row | Ki [1, 3] | Ki [2] | SMILES | Ki [1]
23 | < 500 nM | < 500 nM | C/C(=C1/c2ccc(F)cc2COc2cc(F)ccc21)c1cccc(NS(C)(=O)=O)c1 [Example 809] | 
24 | < 500 nM | < 500 nM | C/C(=C1\c2ccc(F)cc2COc2cc(F)ccc21)c1cccc(NS(C)(=O)=O)c1 [Example 810] | 
25 | < 500 nM | < 500 nM | CC/C(=C1\c2ccccc2COc2cc(F)ccc21)c1cccc(NS(C)(=O)=O)c1 [Example 811] | 
26 | < 500 nM | < 500 nM | CC/C(=C1/c2ccccc2COc2cc(F)ccc21)c1cccc(NS(C)(=O)=O)c1 [Example 812] | 
27 | < 500 nM | < 500 nM | C/C(=C1\c2ccccc2COc2cc(OCC3CC3)ccc21)c1cccc(NS(C)(=O)=O)c1 [Example 813] | 
28 | < 500 nM | < 500 nM | C/C(=C1/c2ccccc2COc2cc(OCC3CC3)ccc21)c1cccc(NS(C)(=O)=O)c1 [Example 814] | 
29 | < 500 nM | < 500 nM | COc1ccc2c(c1)COc1ccccc1/C2=C(/C)c1cccc(NS(C)(=O)=O)c1 [Example 817] | 
30 | < 500 nM | < 500 nM | COc1ccc2c(c1)COc1ccccc1/C2=C(\C)c1cccc(NS(C)(=O)=O)c1 [Example 818] | 
31 | < 500 nM | < 500 nM | CC/C(=C1/c2ccc(OC)cc2COc2ccccc21)c1cccc(NS(C)(=O)=O)c1 [Example 821] | 
32 | < 500 nM | < 500 nM | CC/C(=C1\c2ccc(OC)cc2COc2ccccc21)c1cccc(NS(C)(=O)=O)c1 [Example 822] | 
33 | < 500 nM | < 500 nM | CC/C(=C1/c2ccc(OC)cc2COc2cc(F)ccc21)c1cccc(NS(C)(=O)=O)c1 [Example 823] | 
34 | < 500 nM | < 500 nM | CC/C(=C1\c2ccc(OC)cc2COc2cc(F)ccc21)c1cccc(NS(C)(=O)=O)c1 [Example 824] | 
35 | < 500 nM | < 500 nM | COc1ccc2c(c1)CCc1cc(C)ccc1C2=C(C)c1cccc(NS(C)(=O)=O)c1 [Example 827] | 
36 | < 500 nM | < 500 nM | COc1ccc2c(c1)CCc1cc(C)ccc1/C2=C(/C)c1cccc(NS(C)(=O)=O)c1 [Example 828] | 
37 | < 500 nM | < 500 nM | COc1ccc2c(c1)CCc1cc(C)ccc1/C2=C(\C)c1cccc(NS(C)(=O)=O)c1 [Example 829] | 
38 | < 500 nM | < 500 nM | CC(=C1c2ccc(C)cc2CCc2cc(F)ccc21)c1cccc(NS(C)(=O)=O)c1 [Example 830] | 
39 | < 500 nM | < 500 nM | C/C(=C1\c2ccc(C)cc2CCc2cc(F)ccc21)c1cccc(NS(C)(=O)=O)c1 [Example 831] | 
40 | < 500 nM | < 500 nM | C/C(=C1/c2ccc(C)cc2CCc2cc(F)ccc21)c1cccc(NS(C)(=O)=O)c1 [Example 832] | 
41 | < 500 nM | < 500 nM | CCC(=C1c2ccc(C)cc2CCc2cc(F)ccc21)c1cccc(NS(C)(=O)=O)c1 [Example 833] | 
42 | < 500 nM | < 500 nM | C/C(=C1/c2ccc(F)cc2CCc2ncccc21)c1cc(F)cc(NS(C)(=O)=O)c1 [Example 836] | 
43 | < 500 nM | < 500 nM | C/C(=C1\c2ccc(F)cc2CCc2ncccc21)c1cc(F)cc(NS(C)(=O)=O)c1 [Example 837] | 

Row | SMILES | Ki [1, 3] | Ki [2] | Ki [1]
44 | COc1ccc2c(c1)COc1cc(F)ccc1/C2=C(/C)c1cccc(NS(C)(=O)=O)c1 [Example 819] |  | < 500 nM | < 500 nM
45 | COc1ccc2c(c1)COc1cc(F)ccc1/C2=C(\C)c1cccc(NS(C)(=O)=O)c1 [Example 820] |  | < 500 nM | < 500 nM
